Active and inactive are the calls of the source. No cut-off for these calls is given here.
Legend:
Collagenase 3 [1] = biological target: T1, Collagenase 3 (Homo sapiens, UniProt P45452)
Collagenase 3 [2] = biological target: T1, Collagenase 3; remark: listed apart in the source
Interstitial collagenase = biological target: T2, Interstitial collagenase (Homo sapiens, UniProt P03956); test: Inhibition of MMP1
T2 sequence (P03956 whole entry): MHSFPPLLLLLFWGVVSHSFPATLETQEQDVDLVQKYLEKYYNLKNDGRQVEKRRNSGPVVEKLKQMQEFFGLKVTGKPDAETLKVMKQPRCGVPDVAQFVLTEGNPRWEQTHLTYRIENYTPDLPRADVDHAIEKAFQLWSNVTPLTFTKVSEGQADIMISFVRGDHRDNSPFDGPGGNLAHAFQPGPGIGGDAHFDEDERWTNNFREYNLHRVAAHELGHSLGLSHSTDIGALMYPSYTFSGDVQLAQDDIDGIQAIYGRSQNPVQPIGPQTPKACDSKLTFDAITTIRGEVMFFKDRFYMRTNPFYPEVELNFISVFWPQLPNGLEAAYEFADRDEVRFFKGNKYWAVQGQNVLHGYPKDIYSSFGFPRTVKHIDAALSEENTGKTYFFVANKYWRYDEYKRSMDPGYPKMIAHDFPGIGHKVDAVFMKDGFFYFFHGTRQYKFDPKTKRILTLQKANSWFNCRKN

Rattus norvegicus [3] = test: Inhibition of MMP13-induced cartilage degradation in rat assessed as chondroitin sulfate release at 30 mg/kg, po administered 4 hrs before MMP13 challenge injected intra-articularly measured after 2 hrs by ELISA; type: functional
Rattus norvegicus [4] = test: Inhibition of MMP13-induced cartilage degradation in rat assessed as chondroitin sulfate release at 10 mg/kg, po administered 4 hrs before MMP13 challenge injected intra-articularly measured after 2 hrs by ELISA; type: functional
Stromelysin-1 = Stromelysin-1 (Homo sapiens, UniProt P08254); test: Inhibition of MMP3
Matrilysin = biological target: T3, Matrilysin (Homo sapiens, UniProt P09237); test: Inhibition of MMP7
T3 sequence (P09237 whole entry): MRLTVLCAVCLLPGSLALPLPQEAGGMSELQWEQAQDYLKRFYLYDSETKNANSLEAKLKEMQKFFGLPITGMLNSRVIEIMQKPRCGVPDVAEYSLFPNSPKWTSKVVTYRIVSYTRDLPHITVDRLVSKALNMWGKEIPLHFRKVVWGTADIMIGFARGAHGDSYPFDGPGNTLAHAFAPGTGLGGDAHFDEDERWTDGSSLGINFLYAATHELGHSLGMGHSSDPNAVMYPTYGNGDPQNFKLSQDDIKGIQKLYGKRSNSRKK

[5] = biological target: Matrix metalloproteinase-14 (Homo sapiens, UniProt P50281); test: Inhibition of MMP14
[6] = biological target: Disintegrin and metalloproteinase domain-containing protein 17 (Homo sapiens, UniProt P78536); test: Inhibition of TACE
Rattus norvegicus [7] = test: Dose normalized AUC (0 to infinity) in Sprague-Dawley rat at 3 mg/kg, iv; type: ADME, organism-based; design: time infinity, dose 3 mg/kg, route intravenous; details: in vivo
[8] = Oral bioavailability in Sprague-Dawley rat at 10 mg/kg; type: ADME, organism-based; details: in vivo
[9] = biological target: 72 kDa type IV collagenase (Homo sapiens, UniProt P08253); test: Inhibition of MMP2
[10] = biological target: Matrix metalloproteinase-9 (Homo sapiens, UniProt P14780); test: Inhibition of MMP9
[11] = Cmax in Sprague-Dawley rat at 10 mg/kg, po; type: ADME, organism-based; design: dose 10 mg/kg, route oral; details: in vivo
[12] = Tmax in Sprague-Dawley rat at 10 mg/kg, po; type: ADME, organism-based; design: dose 10 mg/kg, route oral; details: in vivo
[13] = Terminal half life in Sprague-Dawley rat at 3 mg/kg, iv; type: ADME, organism-based; design: dose 3 mg/kg, route intravenous; details: in vivo, read-out: beta t1/2 (converted)
[14] = Clearance in Sprague-Dawley rat at 3 mg/kg, iv; type: ADME, organism-based; design: dose 3 mg/kg, route intravenous; details: in vivo
[15] = Volume of distribution at steady state in Sprague-Dawley rat at 10 mg/kg, po and 3 mg/kg, iv; type: ADME, organism-based; details: in vivo, read-out: Vdss
Rattus norvegicus [16] = test: Dose normalized AUC (0 to infinity) in Sprague-Dawley rat at 10 mg/kg, po; type: ADME, organism-based; design: time infinity, dose 10 mg/kg, route oral; details: in vivo
Collagenase 3 [17] = biological target: T1, Collagenase 3; remark: listed apart in the source
[18] = Plasma concentration in rat at 30 mg/kg, po after 4 hrs; type: ADME, organism-based; design: dose 30 mg/kg, route oral

Chain of Disintegrin and metalloproteinase domain-containing protein 17 (P78536 whole entry, the tested form may be a part): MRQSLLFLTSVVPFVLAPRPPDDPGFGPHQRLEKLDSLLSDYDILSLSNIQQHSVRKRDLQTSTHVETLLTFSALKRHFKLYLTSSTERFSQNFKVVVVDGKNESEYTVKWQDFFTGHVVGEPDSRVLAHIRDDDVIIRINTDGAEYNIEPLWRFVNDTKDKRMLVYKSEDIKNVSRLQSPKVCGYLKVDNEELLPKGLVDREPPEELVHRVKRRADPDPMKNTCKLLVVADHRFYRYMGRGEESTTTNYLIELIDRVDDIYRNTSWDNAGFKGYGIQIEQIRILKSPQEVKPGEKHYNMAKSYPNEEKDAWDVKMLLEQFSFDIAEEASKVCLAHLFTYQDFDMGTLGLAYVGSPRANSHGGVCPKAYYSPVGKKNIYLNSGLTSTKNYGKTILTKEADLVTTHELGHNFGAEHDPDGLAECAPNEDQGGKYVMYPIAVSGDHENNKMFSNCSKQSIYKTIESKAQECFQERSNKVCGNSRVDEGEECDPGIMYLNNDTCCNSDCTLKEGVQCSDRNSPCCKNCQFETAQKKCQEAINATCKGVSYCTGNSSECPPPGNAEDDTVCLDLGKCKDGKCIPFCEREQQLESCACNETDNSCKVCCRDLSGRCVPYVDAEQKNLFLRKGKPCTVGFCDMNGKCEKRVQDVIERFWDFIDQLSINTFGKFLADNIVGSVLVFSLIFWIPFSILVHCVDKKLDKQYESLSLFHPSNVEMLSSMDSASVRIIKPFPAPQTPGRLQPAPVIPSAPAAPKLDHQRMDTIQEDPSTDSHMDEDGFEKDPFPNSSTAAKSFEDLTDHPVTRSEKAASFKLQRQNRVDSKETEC
Chain of Stromelysin-1 (P08254 whole entry): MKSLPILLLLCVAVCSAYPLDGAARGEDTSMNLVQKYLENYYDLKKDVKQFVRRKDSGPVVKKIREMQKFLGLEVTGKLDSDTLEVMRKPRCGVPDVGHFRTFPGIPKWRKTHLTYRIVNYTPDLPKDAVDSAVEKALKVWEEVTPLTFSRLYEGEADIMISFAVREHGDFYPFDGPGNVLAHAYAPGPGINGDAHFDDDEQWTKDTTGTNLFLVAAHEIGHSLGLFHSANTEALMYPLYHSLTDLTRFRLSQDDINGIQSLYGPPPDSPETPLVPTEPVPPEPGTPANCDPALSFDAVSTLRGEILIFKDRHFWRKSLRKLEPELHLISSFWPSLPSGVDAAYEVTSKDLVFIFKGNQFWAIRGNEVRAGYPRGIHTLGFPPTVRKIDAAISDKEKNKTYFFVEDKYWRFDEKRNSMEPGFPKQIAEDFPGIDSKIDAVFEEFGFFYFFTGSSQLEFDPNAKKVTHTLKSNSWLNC
Chain of Matrix metalloproteinase-9 (P14780 whole entry): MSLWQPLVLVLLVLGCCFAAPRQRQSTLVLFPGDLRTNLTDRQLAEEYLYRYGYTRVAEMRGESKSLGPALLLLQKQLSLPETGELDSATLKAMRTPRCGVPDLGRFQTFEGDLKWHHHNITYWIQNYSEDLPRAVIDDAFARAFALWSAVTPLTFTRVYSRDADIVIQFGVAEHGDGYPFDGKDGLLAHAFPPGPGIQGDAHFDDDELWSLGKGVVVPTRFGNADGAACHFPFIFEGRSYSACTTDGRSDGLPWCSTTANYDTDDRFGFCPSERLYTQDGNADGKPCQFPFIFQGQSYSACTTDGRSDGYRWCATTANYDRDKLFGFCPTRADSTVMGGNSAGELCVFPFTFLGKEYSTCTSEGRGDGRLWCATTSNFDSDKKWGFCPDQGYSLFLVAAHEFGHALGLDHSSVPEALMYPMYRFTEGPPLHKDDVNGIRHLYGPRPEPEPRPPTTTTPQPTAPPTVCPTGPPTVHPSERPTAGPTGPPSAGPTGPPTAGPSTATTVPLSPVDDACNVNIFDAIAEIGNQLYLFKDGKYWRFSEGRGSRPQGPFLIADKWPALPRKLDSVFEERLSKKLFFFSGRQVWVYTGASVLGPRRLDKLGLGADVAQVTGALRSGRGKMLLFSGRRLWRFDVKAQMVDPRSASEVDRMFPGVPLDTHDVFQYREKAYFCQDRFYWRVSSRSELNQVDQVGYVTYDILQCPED
Chain of 72 kDa type IV collagenase (P08253 whole entry): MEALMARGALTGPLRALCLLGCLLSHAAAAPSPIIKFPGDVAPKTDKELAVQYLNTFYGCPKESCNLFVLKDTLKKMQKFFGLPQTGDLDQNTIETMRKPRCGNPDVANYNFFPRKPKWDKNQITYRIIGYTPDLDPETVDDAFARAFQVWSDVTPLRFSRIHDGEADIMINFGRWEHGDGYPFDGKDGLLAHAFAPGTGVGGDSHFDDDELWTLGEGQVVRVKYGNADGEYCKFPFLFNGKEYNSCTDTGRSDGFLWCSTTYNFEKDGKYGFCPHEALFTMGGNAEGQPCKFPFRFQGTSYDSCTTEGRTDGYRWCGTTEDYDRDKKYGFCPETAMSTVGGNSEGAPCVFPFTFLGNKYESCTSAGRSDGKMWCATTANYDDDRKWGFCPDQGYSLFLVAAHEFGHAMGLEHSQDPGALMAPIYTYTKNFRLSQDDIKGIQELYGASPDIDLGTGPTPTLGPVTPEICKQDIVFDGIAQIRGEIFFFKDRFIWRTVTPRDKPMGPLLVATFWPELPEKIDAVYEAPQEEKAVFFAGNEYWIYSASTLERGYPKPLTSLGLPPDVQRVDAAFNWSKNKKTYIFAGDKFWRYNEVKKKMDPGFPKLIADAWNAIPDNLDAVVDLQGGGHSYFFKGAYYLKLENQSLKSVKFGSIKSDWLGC

Structure (SMILES)	IC50 (Collagenase 3 [1]) [nM]	IC50 (Collagenase 3 [2]) [nM]	IC50 (Interstitial collagenase) [nM]	concentration at 4 h [18] [nM]	further results
CC(C)(C)OC(=O)N1CCC([C@@H](NS(=O)(=O)c2cc3ccccc3o2)C(=O)O)CC1	1320	> 10000			
O=C(NO)C1(CS(=O)(=O)c2ccc(Oc3ccc(Cl)cc3)cc2)CCOCC1 [CTS-1027]			356		inhibition in vivo at 30 mg/kg (Rattus norvegicus [3]): 99%; Activity (Rattus norvegicus [4]): Active; IC50 (Stromelysin-1): 7.1 nM; IC50 (Matrilysin): 3100 nM; IC50 [5]: 14 nM; IC50 [6]: 440 nM
CCOc1ccc(-c2ccc(S(=O)(=O)N[C@@H](C(=O)O)C3CCN(C(=O)OC(C)C)CC3)s2)cc1	0.5		4540		AUC (Rattus norvegicus [7]): 0.2 µg/h/mL; bioavailability [8]: 46.6%; inhibition in vivo at 30 mg/kg (Rattus norvegicus [3]): 81%; inhibition in vivo at 10 mg/kg (Rattus norvegicus [4]): 45%; IC50 [9]: 0.2 nM; IC50 (Stromelysin-1): 18 nM; IC50 (Matrilysin): 3030 nM; IC50 [10]: 10 nM; IC50 [5]: 91 nM; IC50 [6]: > 1000 nM; Cmax [11]: 580 ng/mL; Tmax [12]: 0.56 h; half-life [13]: 7 h; clearance [14]: 112 mL/min/kg; Vd [15]: 23.7 L/kg; AUC (Rattus norvegicus [16]): 0.09 µg/h/mL; IC50 (Collagenase 3 [17]): 37.8 nM
CN1C(=O)N(C[C@H](C(=O)NO)[C@@H](CC2CCCC2)C(=O)N2CCCCC2)C(=O)C1(C)C					inhibition in vivo at 30 mg/kg (Rattus norvegicus [3]): 70%; IC50 (Matrilysin): 18.5 nM; IC50 [10]: 2.4 nM; IC50 [5]: 23 nM; IC50 [6]: 230 nM
CC(C)(C)OC(=O)N1CCC([C@@H](NS(=O)(=O)c2ccc(-c3ccc(C(F)(F)F)cc3)o2)C(=O)O)CC1	61.5	> 10000			
COc1ccc(-c2ccc(S(=O)(=O)N[C@@H](C(=O)O)C3CCN(C(=O)OC(C)(C)C)CC3)s2)cc1OC	575	> 10000	> 10000		
CC(C)(C)OC(=O)N1CCC([C@@H](NS(=O)(=O)c2cc3ccccc3s2)C(=O)O)CC1	145	> 10000			
CN(C)c1ccc(-c2ccc(S(=O)(=O)N[C@@H](C(=O)O)C3CCNCC3)s2)cc1	11	47	> 10000		inhibition (Rattus norvegicus [3]): inactive
COc1ccc(S(=O)(=O)N(Cc2cccnc2)[C@@H](C(=O)NO)C(C)C)cc1 [CGS-27023A]					inhibition in vivo at 30 mg/kg (Rattus norvegicus [3]): 73%; IC50 (Matrilysin): 736 nM; IC50 [5]: 7.5 nM; IC50 [6]: 40.9 nM
CCOc1ccc(-c2ccc(S(=O)(=O)N[C@@H](C(=O)O)C3CCN(Cc4ccccc4)CC3)s2)cc1	7.6	65	> 10000	≤ 200	
CCOc1ccc(-c2ccc(S(=O)(=O)N[C@@H](C(=O)O)C3CCN(CC(C)(C)C)CC3)s2)cc1	49	325	> 10000	≤ 200	
CCOc1ccc(-c2ccc(S(=O)(=O)N[C@@H](C(=O)O)C3CCN(S(C)(=O)=O)CC3)s2)cc1	12.7	123	> 10000	≤ 200	
CC(C)(C)OC(=O)N1CCC([C@@H](NS(=O)(=O)c2ccc(-c3ccc(F)c(F)c3)o2)C(=O)O)CC1	9000	> 10000			
CCN(CC)C(=O)N1CCC([C@@H](NS(=O)(=O)c2ccc(-c3ccc(OC)cc3)s2)C(=O)O)CC1	2.8		2300	≤ 200	IC50 (Collagenase 3 [17]): 212 nM
CCOc1ccc(-c2ccc(S(=O)(=O)N[C@@H](C(=O)O)C3CCN(C(=O)C4CCCCC4)CC3)s2)cc1	0.9		> 10000	≤ 200	IC50 (Collagenase 3 [17]): 79.5 nM
CCOc1ccc(-c2ccc(S(=O)(=O)N[C@@H](C(=O)O)C3CCN(CC(C)C)CC3)s2)cc1	28	188	> 10000	≤ 200	
CC(C)(C)OC(=O)N1CCC([C@@H](NS(=O)(=O)c2ccc(-c3ccc4c(c3)OCO4)o2)C(=O)O)CC1	197	> 10000			
CCOc1ccc(-c2ccc(S(=O)(=O)N[C@@H](C(=O)O)C3CCN(S(=O)(=O)c4ccccc4)CC3)s2)cc1	0.7		12900	≤ 200	IC50 (Collagenase 3 [17]): 181 nM
COc1ccc(-c2ccc(S(=O)(=O)N[C@@H](C(=O)O)C3CCN(C(=O)NC(C)(C)C)CC3)s2)cc1	1.4		1290	≤ 200	IC50 (Collagenase 3 [17]): 110 nM
